Laboratory results published in paper PMC7918612, “Novel Inhibitors of Nicotinamide-N-Methyltransferase for the Treatment of Metabolic Disorders” (Molecules, 2021).
Like-named read-outs stand apart in the source and are kept apart here. Blank lines part the entries; values can stand above or below the compound they belong to.

How the values were obtained:
[1] = tested on: mice with diet-induced obesity; settings: cited from earlier work
human NNMT = target: T1, human NNMT (Homo sapiens, UniProt P40261); experiment: Fluorescence-based NNMT enzymatic assay (human enzyme); type: biochemical; settings: for IC50: read-out: hNNMT IC50; for reduction in potency on hNNMT: relative to (1)
T1 sequence (P40261 1-264): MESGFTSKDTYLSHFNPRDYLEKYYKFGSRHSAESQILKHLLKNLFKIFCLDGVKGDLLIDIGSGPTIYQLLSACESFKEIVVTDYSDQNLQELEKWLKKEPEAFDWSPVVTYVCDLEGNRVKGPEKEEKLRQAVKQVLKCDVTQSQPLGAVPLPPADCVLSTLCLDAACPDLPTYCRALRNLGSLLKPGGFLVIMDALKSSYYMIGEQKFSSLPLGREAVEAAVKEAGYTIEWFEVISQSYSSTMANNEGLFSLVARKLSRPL
Description: (§1) Experimental Procedures S2: Fluorescence-based NNMT enzymatic assay
(§2) NNMT activity was measured by fluorescence based assay. The product MNA formed in the reaction reacts with acetophenone in the presence of KOH and formic acid and forms a fluorescent product 2, 7- naphthyridine. The fluorescence intensity measured with excitation at 375nm and emission at 430nm. Inhibitors were screened using human, mouse and monkey NNMT enzymes. Different concentrations of inhibitors were pre-incubated along with 5ng/well of human NNMT enzyme and 3.42ng/well of mouse NNMT enzyme for 30 minutes at room temperature. Reaction was initiated by addition of SAM and nicotinamide mixture (7µM, 20µM, 8µM SAM and 6µM, 20µM, 9µM nicotinamide for human, mouse and monkey NNMT assays respectively) and incubated for 60 minutes at 37°C. The final assay reaction mixture contained a buffer of 100mM Tris Hcl pH 7.5, 0.04% BSA, 2mM Dithiothreitol and 1% DMSO. The reaction was terminated by addition of Ethanol: Acetophenone mix (75% ethanol: 25% Acetophenone) and 5M potassium Hydroxide prepared with 50% Ethanol. The reaction was incubated for 15 minutes followed by addition of 100µl of 60% formic acid and further incubation for 60 minutes at room temperature. A fluorescent product 2, 7- naphthyridine was measured in a Tecan reader with excitation at 375nm and emission at 430nm. The IC50 values were determined by fitting the inhibition curves (percent inhibition versus inhibitor concentration) using a four parametric sigmoidal dose response in graph pad prism. […]

mouse NNMT = target: T2, mouse NNMT (Mus musculus, UniProt O55239); experiment: Fluorescence-based NNMT enzymatic assay (mouse enzyme); type: biochemical; settings: for IC50: read-out: mNNMT IC50
T2 sequence (O55239 1-264): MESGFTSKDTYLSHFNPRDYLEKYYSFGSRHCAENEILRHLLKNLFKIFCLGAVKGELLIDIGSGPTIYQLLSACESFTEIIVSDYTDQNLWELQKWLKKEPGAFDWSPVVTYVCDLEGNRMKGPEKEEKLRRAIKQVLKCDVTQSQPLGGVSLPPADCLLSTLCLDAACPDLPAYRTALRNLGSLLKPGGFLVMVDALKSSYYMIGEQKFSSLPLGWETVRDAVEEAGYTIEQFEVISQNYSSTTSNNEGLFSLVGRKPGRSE
Description: as §1, §2

[2] = Metabolic stability in human liver microsomes; type: in vitro ADME; parameters: HLM: unit not given beside the values; settings: for remaining at 1 h: human liver microsomes, read-out: HLM % Remaining at 1 h; for HLM: Table 3, human liver microsome data, head HLM/MLM without unit
Description: (§3) Experimental Procedures S3: Metabolic stability in human and mouse liver microsomes
(§4) These profiling studies were carried out as described in Mullangi R. et. al. Preclinical assessment of
(§5) ulixertinib, a novel ERK1/2 inhibitor, ADMET & DMPK, 2017, 212-223;

[3] = Metabolic stability in rat liver microsomes; type: in vitro ADME; settings: read-out: RLM % Remaining at 1 h
[4] = Metabolic stability in mouse liver microsomes; type: in vitro ADME; settings: for remaining at 1 h: mouse liver microsomes, read-out: MLM % Remaining at 1 h; for MLM: Table 3, mouse liver microsome data, head HLM/MLM without unit
Description: as §3, §4, §5

[5] = Metabolic stability in liver microsomes (species not specified); type: in vitro ADME
Description: as §3, §4, §5

NNMT = settings: substrate of NNMT; cited from earlier work

Compound: 5-amino-1-methylquinoline
body weight [1]: reduced body weight | glucose tolerance [1]: improved glucose tolerance | insulin sensitivity [1]: higher insulin sensitivity

Compound: COc1ccc(-c2cn(C[C@](C)(O)C(=O)N3CCN(c4cccc5cnccc45)CC3)nc2C)cc1 (stereo in doubt) [Compound 12]
hNNMT potency, in words (human NNMT): nanomolar potency | IC50 (human NNMT): 0.008 µM | mNNMT potency, in words (mouse NNMT): nanomolar potency | IC50 (mouse NNMT): 0.0008 µM

Compound: COc1ccc(C(N)=O)cn1 [6-methoxynicotinamide]
body weight [1]: reduced body weight | glucose tolerance [1]: improved glucose tolerance | insulin sensitivity [1]: higher insulin sensitivity

Compound: Cc1nn(CC(C)(O)C(=O)N2CCN(c3cccc4cnccc34)CC2)cc1-c1ccccc1 (stereo not drawn) [Compound 1]
IC50 (human NNMT): 0.26 µM | IC50 (mouse NNMT): 0.84 µM

Compound: CCn1c(=N)n2c3c(cccc31)CCC2 [Compound 3]
mode of inhibition (human NNMT; competition with substrates nicotinamide / SAM): competitive inhibitors either of nicotinamide alone | IC50 (human NNMT): 0.2 µM | IC50 (mouse NNMT): 0.5 µM

Compound: Cc1nn(CCC(=O)N2CCN(c3cccc4cnccc34)CC2)cc1-c1ccccc1 [Compound 6]
IC50 (human NNMT): 1.67 µM | reduction in potency on hNNMT (human NNMT): six-fold reduction | IC50 (mouse NNMT): 2.2 µM | reduction in potency on mouse NMMT (mNNMT) (mouse NNMT; relative to (1)): 2.5 fold

Compound: Cc1nn(CC(O)C(=O)N2CCN(c3cccc4cnccc34)CC2)cc1-c1cccc(F)c1.O=C(O)C(F)(F)F (stereo not drawn) [Compound 9]
IC50 (human NNMT): 0.88 µM | reduction in potency on hNNMT (human NNMT): three-fold reduction | IC50 (mouse NNMT): 2.43 µM

Compound: Cc1nn(CC(C)(O)C(=O)N2CCN(c3cnc4cnccn34)CC2)cc1-c1cccc(F)c1 (stereo not drawn) [Compound 17]
IC50 (human NNMT): > 3 µM | remaining at 1 h [2]: 27% | remaining at 1 h [3]: < 5% | remaining at 1 h [4]: 8%

Compound: Cc1nn(CC(C)(O)C(=O)N2CCN(c3ccc4c(cnn4Cc4ccccc4)c3)CC2)cc1-c1cccc(F)c1 (stereo not drawn) [Compound 18]
IC50 (human NNMT): > 30 µM | remaining at 1 h [2]: 35% | remaining at 1 h [3]: < 5% | remaining at 1 h [4]: 30%

Compound: Cc1nn(CC(C)(O)C(=O)N2CCC(C3=CC=CC4NC(=O)C=CC34)C2)cc1-c1cccc(F)c1 (stereo not drawn) [Compound 26]
hNNMT potency, in words (human NNMT): substantial loss of potency | IC50 (human NNMT; Table 3): > 10 µM | HLM [2]: 12 | MLM [4]: < 5

Compound: Cc1nn(CC(C)(O)C(=O)N2CC(c3cccc4cnccc34)C2)cc1-c1cccc(F)c1 (stereo not drawn) [Compound 29]
IC50 (human NNMT; Table 3): > 30 µM | HLM [2]: <5/<5 | MLM [4]: <5/<5

Compound: Cc1nn(CC(C)(O)C(=O)N2CCC(O)(c3cccc4cnccc34)CC2)cc1-c1cccc(F)c1 (stereo not drawn) [Compound 31]
IC50 (human NNMT; Table 3): 0.11 µM | increase in potency (human NNMT; comparator not stated): three-fold increase | IC50 (mouse NNMT; Table 3): 0.56 µM | HLM [2]: 23 | MLM [4]: < 5 | metabolic stability, in words [5]: insufficient for further profiling

Compound: Cc1nn(CC(C)(O)C(=O)N2CCC(O)(c3cccc4c[n+]([O-])ccc34)CC2)cc1-c1cccc(F)c1 (stereo not drawn) [Compound 32]
hNNMT potency, in words (human NNMT): completely lost NNMT inhibition | IC50 (human NNMT; Table 3): > 30 µM | HLM [2]: 72 | metabolic stability, in words ([2]; humans): improved metabolic stability | MLM [4]: 32 | metabolic stability, in words ([4]; mice): improved metabolic stability

Compound: CC(O)(C/N=c1/sc2cccc3c2n1CCC3)C(=O)N1CCN(c2cccc3cnccc23)CC1 (stereo not drawn) [Compound 33]
IC50 (human NNMT): 2.5 µM | IC50 (mouse NNMT): 3 µM

Compound: C[S+](CC[C@H](N)C(=O)[O-])C[C@H]1O[C@@H](n2cnc3c(N)ncnc32)[C@H](O)[C@@H]1O (stereo partly drawn) [SAM, S-adenosyl-methionine]
Km (NNMT): 1.8 µM

Compound: NC(=O)c1cccnc1 [nicotinamide]
Km (NNMT): 400 µM

The next lines start with the values.

hNNMT potency, in words (human NNMT): completely lost hNNMT activity | IC50 (human NNMT): > 10 µM | remaining at 1 h [2]: < 5% | remaining at 1 h [3]: < 5% | remaining at 1 h [4]: < 5%
Compound: Cc1nn(CC(C)(O)C(=O)N2CCN(c3ccc4cnccc4c3)CC2)cc1-c1cccc(F)c1 (stereo not drawn) [Compound 8]

IC50 (human NNMT): 0.29 µM | IC50 (mouse NNMT): > 3 µM | remaining at 1 h [2]: 7% | remaining at 1 h [4]: < 5%
Compound: Cc1nn(CC(C)(O)C(=O)N2CCN(c3cccc4cnccc34)CC2)cc1-c1ccc(F)c(F)c1 (stereo not drawn) [Compound 10]

hNNMT potency, in words (human NNMT): retains potency | IC50 (human NNMT): 0.2 µM | mNNMT potency, in words (mouse NNMT): retains potency | IC50 (mouse NNMT): 1.87 µM | remaining at 1 h [2]: < 5% | remaining at 1 h [4]: < 5%
Compound: Cc1nn(CC(C)(O)C(=O)N2CCN(c3c(F)ccc4cnccc34)CC2)cc1-c1cccc(F)c1 (stereo not drawn) [Compound 11]

IC50 (human NNMT): 0.49 µM | IC50 (mouse NNMT): 3.48 µM | remaining at 1 h [2]: < 5% | remaining at 1 h [4]: < 5%
Compound: Cc1nn(CC(C)(O)C(=O)N2CCN(c3c(C)sc4cnccc34)CC2)cc1-c1cccc(F)c1 (stereo not drawn) [Compound 14]

IC50 (human NNMT): 0.79 µM | IC50 (mouse NNMT): 5.1 µM | remaining at 1 h [2]: < 5% | remaining at 1 h [3]: < 5% | remaining at 1 h [4]: < 5%
Compound: Cc1nn(CC(C)(O)C(=O)N2CCN(c3cccc4cnncc34)CC2)cc1-c1cccc(F)c1 (stereo not drawn) [Compound 15]

IC50 (human NNMT): 1.1 µM | IC50 (mouse NNMT): 1.63 µM | remaining at 1 h [2]: < 5% | remaining at 1 h [3]: < 5% | remaining at 1 h [4]: < 5%
Compound: Cc1nn(CC(C)(O)C(=O)N2CCN(c3cccc4cncnc34)CC2)cc1-c1cccc(F)c1 (stereo not drawn) [Compound 16]

IC50 (human NNMT): > 10 µM
Compound: Cc1nn(CC(C)(O)C(=O)N2CCN(c3ccc4[nH]ncc4c3)CC2)cc1-c1cccc(F)c1 (stereo not drawn) [Compound 19]

IC50 (human NNMT): > 3 µM | remaining at 1 h [2]: 18% | remaining at 1 h [4]: < 5%
Compound: Cc1nn(CC(C)(O)C(=O)N2CCN(c3cccc4[nH]ncc34)CC2)cc1-c1cccc(F)c1 (stereo not drawn) [Compound 20]

hNNMT potency, in words (human NNMT): reasonable potency | IC50 (human NNMT): 0.25 µM | IC50 (mouse NNMT): 1.64 µM | remaining at 1 h [2]: 20% | remaining at 1 h [3]: < 5% | remaining at 1 h [4]: < 5% | metabolic stability, in words [5]: did not improve
Compound: Cc1nn(CC(C)(O)C(=O)N2CCN(c3cccc4[nH]c(=O)ccc34)CC2)cc1-c1cccc(F)c1 (stereo not drawn) [Compound 21]

hNNMT potency, in words (human NNMT): not active | IC50 (human NNMT): > 30 µM | remaining at 1 h [2]: 16% | remaining at 1 h [3]: 31% | remaining at 1 h [4]: < 5%
Compound: Cc1nn(CC(C)(O)C(=O)N2CCN(c3cccc4c(=O)[nH]ccc34)CC2)cc1-c1cccc(F)c1 (stereo not drawn) [Compound 22]

IC50 (human NNMT): 0.15 µM | IC50 (mouse NNMT): 1 µM | remaining at 1 h [2]: < 5% | remaining at 1 h [4]: < 5% | metabolic stability, in words [5]: did not improve
Compound: Cc1nn(CC(C)(O)C(=O)N2CCN(c3cccc4c3ccc(=O)n4C)CC2)cc1-c1cccc(F)c1 (stereo not drawn) [Compound 23]

IC50 (human NNMT): > 10 µM | remaining at 1 h [2]: < 5% | remaining at 1 h [4]: < 5%
Compound: Cc1nn(CC(C)(O)C(=O)N2CCN(c3cccc4c3OCC(=O)N4)CC2)cc1-c1cccc(F)c1 (stereo not drawn) [Compound 24]

IC50 (human NNMT; Table 3): 0.75 µM | IC50 (mouse NNMT; Table 3): > 3 µM | reduction in mNNMT potency (mouse NNMT; compared to (21)): two-fold reduction | HLM [2]: 17 | MLM [4]: < 5
Compound: Cc1nn(CC(C)(O)C(=O)N2CCC(c3cccc4[nH]c(=O)ccc34)CC2)cc1-c1cccc(F)c1 (stereo not drawn) [Compound 25]

hNNMT potency, in words (human NNMT): substantial loss of potency | IC50 (human NNMT; Table 3): > 30 µM
Compound: Cc1nn(CC(C)(O)C(=O)N2CC(c3cccc4[nH]c(=O)ccc34)C2)cc1-c1cccc(F)c1 (stereo not drawn) [Compound 27]

hNNMT potency, in words (human NNMT): substantial loss of potency | IC50 (human NNMT; Table 3): > 3 µM | IC50 (mouse NNMT; Table 3): > 30 µM
Compound: Cc1nn(CC(C)(O)C(=O)N2CCCN(c3cccc4[nH]c(=O)ccc34)CC2)cc1-c1cccc(F)c1 (stereo not drawn) [Compound 28]

hNNMT potency, in words (human NNMT): inactive | IC50 (human NNMT; Table 3): > 10 µM | HLM [2]: <5/<5 | MLM [4]: <5/<5
Compound: Cc1nn(CC(C)(O)C(=O)N2CCC(O)(c3cccc4[nH]c(=O)ccc34)CC2)cc1-c1cccc(F)c1 (stereo not drawn) [Compound 30]
